Measurements as given in paper PMC10360057 (2023).

Legend:
[1] = system: RNA 1 (RNA, riboswitch) GGCUGCUUGUCCUUUAAUGGUCCAGUC; assay: native ESI MS; conditions: 9:1 H2O/CH3OH, 0.25 mM piperazine
[2] = system: RNA 1 (RNA, riboswitch) GGCUGCUUGUCCUUUAAUGGUCCAGUC; assay: ITC; conditions: K+ 100 mM (KCl), Mg2+ 2 mM (MgCl2); 50 mM MOPS, pH 7.5, 21 °C; two-site fit, site 1 of 2
[3] = system: RNA 2 (RNA, riboswitch) CCGGCAUAGCUUGUCCUUUAAUGGUCCUAUGUCGAAAAUG; assay: ITC; conditions: K+ 100 mM (KCl), Mg2+ 2 mM (MgCl2); 50 mM MOPS, pH 7.5, 21 °C; two-site fit, site 1 of 2
[4] = system: RNA 2 (RNA, riboswitch) CCGGCAUAGCUUGUCCUUUAAUGGUCCUAUGUCGAAAAUG; assay: competitive native ESI MS; conditions: NH4+ 50 mM (ammonium bicarbonate); 9:1 H2O/CH3OH, 0.25 mM piperazine, pH ~7.5, 21 °C; RNA 1 as competing reference; overall, motifs A and B
[5] = system: RNA 3 (RNA, riboswitch) CCGUCAUAGCUUGUCCUUUAAUGGUCCUAUGACGAAAAUG; assay: competitive native ESI MS; conditions: NH4+ 50 mM (ammonium bicarbonate); 9:1 H2O/CH3OH, 0.25 mM piperazine, pH ~7.5, 21 °C; RNA 1 as competing reference; overall, motifs A and B
[6] = system: RNA 4 (RNA, riboswitch) CCCUGAUAGCUUGUCCUUUAAUGGUCCUAUCUGGAAAAUG; assay: competitive native ESI MS; conditions: NH4+ 50 mM (ammonium bicarbonate); 9:1 H2O/CH3OH, 0.25 mM piperazine, pH ~7.5, 21 °C; RNA 1 as competing reference; overall, motifs A and B

| Compound | KD ([1]; none added, pH ~6, room temperature, 1 μM RNA, 10 μM paromomycin) | KD [2] | KD [3] | KD ([1]; NH4+ 50 mM (ammonium bicarbonate), pH 7.5, 21 °C, single-site model) | KD [4] | KD [5] | KD [6] |
| --- | --- | --- | --- | --- | --- | --- | --- |
| NC[C@@H]1O[C@H](O[C@H]2[C@@H](O)[C@H](O[C@@H]3[C@@H](O)[C@H](N)C[C@H](N)[C@H]3O[C@H]3O[C@H](CO)[C@@H](O)[C@H](O)[C@H]3N)O[C@@H]2CO)[C@H](N)[C@@H](O)[C@@H]1O | 4600 ± 1400 nM |  |  |  |  |  |  |
| NC[C@@H]1O[C@H](O[C@H]2[C@@H](O)[C@H](O[C@@H]3[C@@H](O)[C@H](N)C[C@H](N)[C@H]3O[C@H]3O[C@H](CN)[C@@H](O)[C@H](O)[C@H]3N)O[C@@H]2CO)[C@H](N)[C@@H](O)[C@@H]1O |  | 2 ± 2 nM | 400 ± 600 nM | 700 ± 200 nM | 500 ± 200 nM | 500 ± 200 nM | 500 ± 200 nM |
